# In patent US8263385B2, “S-triazine-herbicide-degrading bacteria, product for the bioremediation and method of bioremediation” (priority 2007, dated 2012):
# Tested on: Pseudomonas sp. strain MHP41
# Experiment: Antibiotic sensitivity of strain MHP41
# Type: cell-based
row,SMILES,sensitivity or resistance of the strain to the antibiotic
1,CC1(C)S[C@@H]2[C@H](NC(=O)[C@H](N)c3ccccc3)C(=O)N2[C@H]1C(=O)O [ampicillin],natural resistance
2,CC1(C)S[C@@H]2[C@H](NC(=O)C(C(=O)O)c3ccccc3)C(=O)N2[C@H]1C(=O)O (stereo partly drawn) [carbamicillin],sensitive
3,[H]/N=C(/N)N[C@H]1[C@H](O)[C@@H](O)[C@H](O[C@@H]2O[C@@H](C)[C@](O)(C=O)[C@H]2O[C@@H]2O[C@@H](CO)[C@H](O)[C@@H](O)[C@@H]2NC)[C@@H](N/C(N)=N\[H])[C@@H]1O [streptomycin],sensitive
